Test results as given in patent US9492508B2, “Parathyroid hormone analogs and uses thereof” (The General Hospital Corporation, priority 2010, dated 2016).
Square brackets hold non-standard residues; d marks the D form. Peptide text beside a SMILES is read from it. hArg = N=C(N)NCCCC[C@H](N)C(=O)O; Aib = CC(C)(N)C(=O)O

Experiments:
human PTHR1 (R0) = target: T1, human PTHR1 (R0) (Homo sapiens, UniProt Q03431); experiment: Competition binding, R0 conformation of human PTHR1 (COS-7 membranes, 125I-PTH(1-34) tracer, GTPγS)
T1 construct: expressed in transfected cells; host or cells: COS-7 cells (membranes)
T1 sequence (Q03431 27-593): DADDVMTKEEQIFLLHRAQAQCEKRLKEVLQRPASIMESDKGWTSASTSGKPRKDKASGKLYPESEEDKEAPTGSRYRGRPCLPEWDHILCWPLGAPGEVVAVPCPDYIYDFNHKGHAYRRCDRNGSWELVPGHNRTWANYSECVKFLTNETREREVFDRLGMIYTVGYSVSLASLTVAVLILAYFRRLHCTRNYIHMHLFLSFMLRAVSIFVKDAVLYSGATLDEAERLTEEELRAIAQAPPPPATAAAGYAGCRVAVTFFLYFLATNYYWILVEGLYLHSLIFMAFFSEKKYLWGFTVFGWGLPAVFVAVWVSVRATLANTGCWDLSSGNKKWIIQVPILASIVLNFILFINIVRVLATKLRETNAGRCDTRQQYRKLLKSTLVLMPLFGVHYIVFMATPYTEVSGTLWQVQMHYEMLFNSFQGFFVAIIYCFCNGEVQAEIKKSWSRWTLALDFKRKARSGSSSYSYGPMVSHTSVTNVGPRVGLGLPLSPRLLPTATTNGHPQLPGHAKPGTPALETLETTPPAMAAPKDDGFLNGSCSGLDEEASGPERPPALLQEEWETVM
Protocol: (§1) Briefly, the R^0 form of the receptor can be favored by addition of the non-hydrolyzable nucleotide analog GTPγS. The RG form can be favored, for example, by co-transfection of cells with a negative dominant Gαs subunit. […] Data are means of four experiments, each performed in duplicate. Curves were fit to the data using Graph-Pad Prism 4.0.
Here, competition binding assays for the R^0 and RG PTHR1 conformation were performed in membranes prepared from transfected COS-7 cells, as described by Dean et al., Mol Endocrinol 22:156-66, 2008. Data are means of three experiments, each performed in duplicate. Curves were fit to the data using Graph-Pad Prism 4.0.

rat PTHR1 (RG) = target: T2, rat PTHR1 (RG) (Rattus norvegicus, UniProt P25961); experiment: Competition binding, RG conformation of rat PTHR1; settings: RG conformation; mean of 4 experiments; read-out: Binding rat PTHR1 IC50 (Log M) RG (converted)
T2 construct: expressed in transfected cells
T2 sequence (P25961 27-591): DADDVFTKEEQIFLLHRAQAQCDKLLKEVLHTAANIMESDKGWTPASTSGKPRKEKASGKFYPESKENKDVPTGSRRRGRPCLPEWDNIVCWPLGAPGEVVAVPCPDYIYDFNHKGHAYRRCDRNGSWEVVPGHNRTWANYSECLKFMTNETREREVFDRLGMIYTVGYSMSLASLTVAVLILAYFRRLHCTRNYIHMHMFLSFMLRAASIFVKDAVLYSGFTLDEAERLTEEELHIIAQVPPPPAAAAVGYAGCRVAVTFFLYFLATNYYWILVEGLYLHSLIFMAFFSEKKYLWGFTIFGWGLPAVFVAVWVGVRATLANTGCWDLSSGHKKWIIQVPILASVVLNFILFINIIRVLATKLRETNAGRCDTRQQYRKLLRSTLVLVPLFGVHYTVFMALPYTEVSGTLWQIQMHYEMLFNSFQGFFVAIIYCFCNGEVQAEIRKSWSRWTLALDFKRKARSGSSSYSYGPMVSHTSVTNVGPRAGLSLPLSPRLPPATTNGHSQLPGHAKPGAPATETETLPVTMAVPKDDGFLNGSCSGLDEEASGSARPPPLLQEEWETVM
Description: as §1

[1] = Blood Ca++ responses in mice; type: in vivo, mice (C57 BL/6); settings: 5 nmol/kg s.c., 4, 6, 8 and 24 hours
Protocol: Blood Ca^++ responses in mice were also assayed. Mice (C57 BL/6) were injected subcutaneously with either vehicle or the indicated ligand to give a final dose of 5 nmol/kg body weight, and blood was withdrawn via the tail at times after injection and assessed for Ca^++ concentration using a Bayer Rapid Lab model 348 blood analyzer. […] A similar experiment using 10 nmol/kg by intravenous injection was also conducted with similar results (FIGS. 8C and 8D).

MC3T3-E1 cells [2] = experiment: cAMP response following ligand wash-out in MC3T3-E1 cells; type: cell-based, mouse; settings: 100 nM ligand 5 min, then wash-out; FIGS. 7A, 7B
Protocol: Cells were treated at room temperature with vehicle or the indicated ligand (100 nM) for five minutes; for each ligand duplicate wells were used to obtain the initial (maximum cAMP values); in these wells, cells were co-incubated with ligand and IBMX. After five minutes of initial treatment, the buffer was removed, and, for the initial wells, the reactions were terminated by addition of 50 mM HCl. In the other wells, the cells were rinsed three times with buffer, and incubated in buffer for varying times, as indicated on the abscissa; after which the buffer was replaced by a buffer containing IBMX, and the cells were incubated for another five minutes. After that, the buffer was removed and the reactions were terminated by addition of 50 mM HCl. The cAMP contents of the HCl lysates were then determined by RIA.

MC3T3-E1 cells [3] = experiment: cAMP RIA in intact MC3T3-E1 cells; type: cell-based, mouse; settings: 30 min, room temperature, IBMX
Protocol: cAMP stimulating activity of these polypeptides was also assessed, using two different methods: a radioimmunoassay (RIA; FIG. 2) and a cAMP responsive element fused to a luciferase gene (FIG. 3). Briefly, the RIA cAMP assays were performed in intact MC3T3-E1 cells, a mouse pre-osteoblastic cell line, in 96-well plates, as described by Okazaki et al. (Proc Natl Acad Sci USA 105:16525-30, 2008). […] The cAMP contents of the HCl lysates were then determined by RIA. Data are means of six experiments, each performed in duplicate. Curves were fit to the data using Graph-Pad Prism 4.0.

[4] = rat, in vivo, iv, 24.3 nmol/kg
in vivo = settings: Crl:CD(SD), rat, iv, 24.3 nmol/kg
PD PTH receptor = target: T3, PD PTH receptor (Mus musculus, UniProt P41593, S489A/S491A/S492A/S493A/S495A/S501A/S504A); experiment: Blood calcium and cAMP in knock-in mice with phosphorylation-deficient (PD) PTH receptor vs wild-type; type: in vivo
T3 construct: endogenous in cells; host or cells: knock-in mice (in vivo)
T3 sequence (P41593 27-591 S489A/S491A/S492A/S493A/S495A/S501A/S504A): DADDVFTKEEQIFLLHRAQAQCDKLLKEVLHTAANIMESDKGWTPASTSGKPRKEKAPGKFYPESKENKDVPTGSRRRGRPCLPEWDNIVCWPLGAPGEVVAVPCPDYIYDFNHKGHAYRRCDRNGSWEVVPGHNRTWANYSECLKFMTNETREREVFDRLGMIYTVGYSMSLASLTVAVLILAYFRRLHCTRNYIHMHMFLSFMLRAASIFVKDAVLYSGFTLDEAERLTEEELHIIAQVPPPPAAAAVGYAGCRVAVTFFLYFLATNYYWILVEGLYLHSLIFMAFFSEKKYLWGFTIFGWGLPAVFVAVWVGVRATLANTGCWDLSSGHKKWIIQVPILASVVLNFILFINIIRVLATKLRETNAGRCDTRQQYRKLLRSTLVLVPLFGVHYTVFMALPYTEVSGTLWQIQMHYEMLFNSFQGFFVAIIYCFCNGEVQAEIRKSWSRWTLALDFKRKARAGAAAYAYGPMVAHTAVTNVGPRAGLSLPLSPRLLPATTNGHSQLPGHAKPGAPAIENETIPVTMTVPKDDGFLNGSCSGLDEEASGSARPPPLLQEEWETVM
Protocol: The activity of SP-PTH-AAK (SEQ ID NO:4) was tested in “knock-in” mice that express a PD PTH receptor in place of the wild-type PTH receptor (Bounoutas et al., Endocrinology 147: 4674, 2006).
Blood cAMP levels were also compared between the two types of mice.

CC[C@H](C)[C@H](NC(=O)[C@H](CCC(=O)O)NC(=O)[C@H](C)NC(=O)[C@@H](NC(=O)[C@H](Cc1c[nH]cn1)NC(=O)[C@@H](NC(=O)[C@H](CCC(=O)O)NC(=O)[C@H](C)NC(=O)[C@@H](NC(=O)[C@H](CC(C)C)NC(=O)[C@H](Cc1c[nH]cn1)NC(=O)[C@H](Cc1c[nH]cn1)NC(=O)[C@H](CC(C)C)NC(=O)[C@H](Cc1ccccc1)NC(=O)[C@H](Cc1ccccc1)NC(=O)[C@H](CCCNC(=N)N)NC(=O)[C@H](CCCNC(=N)N)NC(=O)[C@H](CCCNC(=N)N)NC(=O)[C@H](CC(C)C)NC(=O)[C@H](CC(=O)O)NC(=O)[C@H](CCC(N)=O)NC(=O)[C@@H](NC(=O)[C@H](Cc1c[nH]c2ccccc12)NC(=O)[C@H](CCCCN)NC(=O)[C@H](C)NC(=O)[C@H](CCCCNC(=N)N)NC(=O)[C@H](CCC(N)=O)NC(=O)[C@H](Cc1c[nH]cn1)NC(=O)[C@H](CCSC)NC(=O)[C@H](CC(C)C)NC(=O)[C@H](CCC(N)=O)NC(=O)[C@@H](NC(=O)[C@H](CCC(=O)O)NC(=O)C(C)(C)NC(=O)[C@@H](NC(=O)[C@H](C)N)C(C)C)[C@@H](C)CC)[C@@H](C)CC)[C@@H](C)CC)[C@@H](C)CC)[C@@H](C)O)C(N)=O [AIB-SP-PTH, [Ala^1,12,Aib^3,Gln^10,Har^11,Trp^14]PTH(1-14)/PTHrP(15-36)] (H-AV[Aib]EIQLMHQ[hArg]AKWIQDLRRRFFLHHLIAEIHTAEI-NH2; N-terminus assumed)
R0 binding at human PTH receptor as compared to PTH(1-34) (human PTHR1 (R0); FIG. 5A): enhanced R^0 binding | IC50 (human PTHR1 (R0); R0 conformation, mean of 3 experiments, read-out: Binding human PTHR1 IC50 (Log M) R0 (converted)): 1.82 nM | IC50 (rat PTHR1 (RG)): 0.38 nM | blood calcium levels at later time points vs PTH(1-34) or vehicle [1]: increased | cAMP-stimulating activity after ligand wash-out (MC3T3-E1 cells [2]): maintained cAMP-stimulating activity for longer periods of time than PTH(1-34) | EC50 (MC3T3-E1 cells [3]): 0.044 nM | cAMP MC3T3-E1 cells Emax (pmole/well) (MC3T3-E1 cells [3]): 62.1 ± 13.3 pmole/well | cAMP MC3T3-E1 cells EC50 (Log M) (MC3T3-E1 cells [3]; 6 experiments): −10.4 ± 0.1 Log M

CC[C@H](C)[C@H](NC(=O)[C@H](CCC(=O)O)NC(=O)[C@H](CO)NC(=O)[C@@H](NC(=O)[C@@H](N)CO)C(C)C)C(=O)N[C@@H](CCC(N)=O)C(=O)N[C@@H](CC(C)C)C(=O)N[C@@H](CCSC)C(=O)N[C@@H](Cc1cnc[nH]1)C(=O)N[C@@H](CC(N)=O)C(=O)N[C@@H](CC(C)C)C(=O)NCC(=O)N[C@@H](CCCCN)C(=O)N[C@@H](Cc1cnc[nH]1)C(=O)N[C@@H](CC(C)C)C(=O)N[C@@H](CC(N)=O)C(=O)N[C@@H](CO)C(=O)N[C@@H](CCSC)C(=O)N[C@@H](CCC(=O)O)C(=O)N[C@@H](CCCN=C(N)N)C(=O)N[C@H](C(=O)N[C@@H](CCC(=O)O)C(=O)N[C@@H](Cc1c[nH]c2ccccc12)C(=O)N[C@@H](CC(C)C)C(=O)N[C@@H](CCCN=C(N)N)C(=O)N[C@@H](CCCCN)C(=O)N[C@@H](CCCCN)C(=O)N[C@@H](CC(C)C)C(=O)N[C@@H](CCC(N)=O)C(=O)N[C@@H](CC(=O)O)C(=O)N[C@H](C(=O)N[C@@H](Cc1cnc[nH]1)C(=O)N[C@@H](CC(N)=O)C(=O)N[C@@H](Cc1ccccc1)C(=O)O)C(C)C)C(C)C [PTH(1-34), hPTH(1-34)OH, reference compound]
AUCinf [4]: 1315 pmol·min/mL | AUClast [4]: 1308 pmol·min/mL | MRT (in vivo): 11.4 min | Vd (in vivo): 0.211 L/kg | clearance (in vivo): 18.5 mL/min/kg | half-life (in vivo): 7.78 min

M-PTH(1-28)
increases in blood calcium levels in PD mice as compared to wild-type mice (PD PTH receptor; FIGS. 17A, 17B): either reduced or eliminated | blood cAMP levels in PD mice as compared to wild-type mice (PD PTH receptor; FIGS. 18A, 18B): increased in magnitude and prolonged in duration
